Test results as given in patent US7713994B2 (Wyeth LLC, priority 2005, dated 2010).

Key:
BT474 = test: Cytotoxicity assay (SRB), BT474; format: cell-based; conditions: Homo sapiens, BT-474, 144 h, BT474 cells, 6 days, SRB; read-out: In Vitro Cellular Activity IC50 BT474
Procedure, shortened: (§1)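 Seeding: BT474 12000, HCT-116 4000, LoVo 6000, MCF-7 6000 cells/well; overnight attachment, 37 °C, 7% CO2. Drug exposure 3 d (BT474 6 d), RPMI 1640 + 5% FBS. Readout: TCA fix, 0.4% SRB, Tris solubilisation, A540.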

LoVo = test: Cytotoxicity assay (SRB), LoVo; format: cell-based; conditions: Homo sapiens, LoVo, 72 h, LoVo cells, 3 days, SRB; read-out: In Vitro Cellular Activity IC50 LOVO
Procedure, shortened: as §1

cyclin E/CDK2 enzyme = target: T1, cyclin E/CDK2 enzyme (Homo sapiens, UniProt P24941); test: CDK2 ELISA kinase assay (phospho-Rb ser 795 detection); format: biochemical; conditions: In Vitro Enzyme Assay, cyclin E/CDK2, read-out: CDK2 IC50
T1 construct: made in house; host or cells: Sf9 insect cells, recombinant baculovirus
Procedure, shortened: (§2)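 ELISA format: plate-bound GST-Rb, 200 μM ATP, Sf9 cyclin/CDK enzyme, 1 h at 30° C; then anti-pRb Ser795 primary overnight at 4° C, HRP secondary, TMB. IC50 after no-substrate background subtraction.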

HCT-116 = test: Cytotoxicity assay (SRB), HCT-116; format: cell-based; conditions: Homo sapiens, HCT-116, 72 h, HCT116 cells, 3 days, SRB; read-out: In Vitro Cellular Activity IC50 HCT116
Procedure, shortened: as §1

MCF-7 = test: Cytotoxicity assay (SRB), MCF-7; format: cell-based; conditions: Homo sapiens, MCF7, 72 h, MCF-7 cells, 3 days, SRB; read-out: In Vitro Cellular Activity IC50 MCF-7
Procedure, shortened: as §1

cyclin D1/cdk 4 enzyme = target: T2, cyclin D1/cdk 4 enzyme (Homo sapiens, UniProt P11802); test: CDK4 ELISA kinase assay (phospho-Rb ser 795 detection); format: biochemical; conditions: In Vitro Enzyme Assay, cyclin D1/cdk 4, read-out: CDK4 IC50
T2 construct: made in house; host or cells: Sf9 insect cells, recombinant baculovirus
Procedure, shortened: as §2

cyclin B/CDK1 enzyme = target: T3, cyclin B/CDK1 enzyme (Homo sapiens, UniProt P06493); test: CDK1 ELISA kinase assay (phospho-Rb ser 795 detection); format: biochemical; conditions: In Vitro Enzyme Assay, cyclin B/CDK1, read-out: CDK1 IC50
T3 construct: purchased New England BioLabs; host or cells: Sf9 insect cells, recombinant baculovirus
Procedure, shortened: as §2

T3 sequence (P06493 whole entry): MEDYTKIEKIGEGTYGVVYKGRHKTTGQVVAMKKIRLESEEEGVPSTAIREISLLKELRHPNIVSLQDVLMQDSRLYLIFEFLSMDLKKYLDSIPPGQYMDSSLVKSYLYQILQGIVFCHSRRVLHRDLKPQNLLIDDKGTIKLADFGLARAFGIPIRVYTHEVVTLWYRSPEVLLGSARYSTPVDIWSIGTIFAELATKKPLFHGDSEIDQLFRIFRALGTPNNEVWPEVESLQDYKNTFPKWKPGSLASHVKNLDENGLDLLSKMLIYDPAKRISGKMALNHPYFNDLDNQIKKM
T3 sequence (P14635 whole entry partner): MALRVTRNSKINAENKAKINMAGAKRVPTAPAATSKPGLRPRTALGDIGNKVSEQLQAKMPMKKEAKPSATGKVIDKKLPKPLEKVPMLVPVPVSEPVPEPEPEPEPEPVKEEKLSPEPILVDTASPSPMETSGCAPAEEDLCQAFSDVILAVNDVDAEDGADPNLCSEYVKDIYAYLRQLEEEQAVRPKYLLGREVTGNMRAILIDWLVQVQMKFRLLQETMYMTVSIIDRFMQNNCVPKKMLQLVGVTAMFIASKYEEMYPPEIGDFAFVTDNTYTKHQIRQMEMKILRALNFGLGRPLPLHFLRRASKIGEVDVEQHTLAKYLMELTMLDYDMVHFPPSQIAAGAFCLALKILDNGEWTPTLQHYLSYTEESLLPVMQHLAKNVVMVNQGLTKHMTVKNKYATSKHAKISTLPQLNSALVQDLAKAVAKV
T2 sequence (P11802 whole entry, species assumed): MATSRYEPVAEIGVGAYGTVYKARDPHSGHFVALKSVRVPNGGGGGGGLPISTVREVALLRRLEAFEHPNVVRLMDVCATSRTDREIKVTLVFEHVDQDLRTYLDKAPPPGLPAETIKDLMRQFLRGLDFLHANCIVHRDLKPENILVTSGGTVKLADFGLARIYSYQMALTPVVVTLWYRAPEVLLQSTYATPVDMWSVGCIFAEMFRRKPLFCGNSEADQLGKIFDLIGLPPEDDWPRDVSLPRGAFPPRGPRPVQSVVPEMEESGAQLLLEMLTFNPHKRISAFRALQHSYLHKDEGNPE
T2 sequence (P24385 whole entry partner, species assumed): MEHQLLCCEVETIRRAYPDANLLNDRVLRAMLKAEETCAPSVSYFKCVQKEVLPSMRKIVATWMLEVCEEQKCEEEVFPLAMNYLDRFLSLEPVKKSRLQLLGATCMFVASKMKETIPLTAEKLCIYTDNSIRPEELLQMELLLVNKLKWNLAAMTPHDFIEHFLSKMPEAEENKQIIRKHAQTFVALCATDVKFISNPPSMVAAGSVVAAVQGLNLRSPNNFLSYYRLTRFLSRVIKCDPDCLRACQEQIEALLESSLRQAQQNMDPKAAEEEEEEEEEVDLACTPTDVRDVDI

Compound | IC50 (cyclin E/CDK2 enzyme) | IC50 (cyclin D1/cdk 4 enzyme) | IC50 (cyclin B/CDK1 enzyme) | IC50 (BT474) | IC50 (LoVo) | IC50 (HCT-116) | IC50 (MCF-7)
CN(C)c1ccc(-c2ccc3c(c2)C(=CNCc2ccc(O)c(O)c2)C(=O)NC3=O)cc1 [Example 816, 4-[(3,4-Dihydroxy-benzylamino)-methylene]-6-(4-dimethylamino-phenyl)-4H-isoquinoline-1,3-dione] | 24.2 µM | 0.31 µM | > 50 µM | 4 µM | 10.2 µM | 11.6 µM | 10.1 µM
O=C1NC(=O)c2ccc(-c3ccc(CO)cc3)cc2C1=CNCc1ccc(O)c(O)c1 [Example 817, 4-[(3,4-Dihydroxy-benzylamino)-methylene]-6-(4-hydroxymethyl-phenyl)-4H-isoquinoline-1,3-dione] | 7 µM | 0.04 µM | 7 µM | 16.2 µM | 34.9 µM | 46.9 µM | 24.9 µM
O=C1NC(=O)c2ccc(-c3ccc(OC(F)(F)F)cc3)cc2C1=CNCc1ccc(O)c(O)c1 [Example 818, 4-[(3,4-Dihydroxy-benzylamino)-methylene]-6-(4-trifluoromethoxy-phenyl)-4H-isoquinoline-1,3-dione] | 30.3 µM | 0.79 µM | 36.3 µM | 22.9 µM | 7.4 µM | 11.7 µM | 10.5 µM
O=C1NC(=O)c2ccc(-c3cccc([N+](=O)[O-])c3)cc2C1=CNCc1ccc(O)c(O)c1 [Example 820, 4-[(3,4-Dihydroxy-benzylamino)-methylene]-6-(3-nitro-phenyl)-4H-isoquinoline-1,3-dione] | 27.1 µM | 2.1 µM | > 50 µM | > 50 µM | 47.9 µM | 41.5 µM | > 50 µM
Nc1cccc(-c2ccc3c(c2)C(=CNCc2ccc(O)c(O)c2)C(=O)NC3=O)c1 [Example 821, 6-(3-Amino-phenyl)-4-[(3,4-dihydroxy-benzylamino)-methylene]-4H-isoquinoline-1,3-dione] | 20.7 µM | 0.14 µM | 24.2 µM | 25.1 µM | 50.1 µM | 35.9 µM | 27.2 µM
CC(=O)Nc1cccc(-c2ccc3c(c2)C(=CNCc2ccc(O)c(O)c2)C(=O)NC3=O)c1 [Example 822, N-(3-{4-[(3,4-Dihydroxy-benzylamino)-methylene]-1,3-dioxo-1,2,3,4-tetrahydro-isoquinolin-6-yl}-phenyl)-acetamide] | 18.9 µM | 0.15 µM | 46.5 µM | 11 µM | 47.9 µM | 27.2 µM | 16.8 µM
O=C1NC(=O)c2ccc(-c3ccc(Cl)cc3Cl)cc2C1=CNCc1ccc(O)c(O)c1 [Example 823, 6-(2,4-Dichloro-phenyl)-4-[(3,4-dihydroxy-benzylamino)-methylene]-4H-isoquinoline-1,3-dione] | 2.4 µM | 0.22 µM | 9.4 µM | 21.4 µM | 12.3 µM | 11.9 µM | 14.8 µM
COc1ccc(CNC=C2C(=O)NC(=O)c3ccc(C=Cc4ccncc4)cc32)cc1O [Example 824, 4-[(3-Hydroxy-4-methoxy-benzylamino)-methylene]-6-(2-pyridin-4-yl-vinyl)-4H-isoquinoline-1,3-dione] | 34.7 µM | 0.01 µM | > 50 µM | > 50 µM | > 50 µM | 27.5 µM | 33.2 µM
COc1ccc(CNC=C2C(=O)NC(=O)c3ccc(C=Cc4ccccc4)cc32)cc1O [Example 825, 4-[(3-Hydroxy-4-methoxy-benzylamino)-methylene]-6-styryl-4H-isoquinoline-1,3-dione] | 36.3 µM | 0.02 µM | > 50 µM | 24.7 µM | 22.1 µM | 11.9 µM | 12.3 µM
COc1ccc(CNC=C2C(=O)NC(=O)c3ccc(C=CCc4cccc(OC)c4O)cc32)cc1O [Example 827, 4-[(3-Hydroxy-4-methoxy-benzylamino)-methylene]-6-[3-(2-hydroxy-3-methoxy-phenyl)-propenyl]-4H-isoquinoline-1,3-dione] | 45.5 µM | 0.12 µM | > 50 µM | 26.5 µM | 18.1 µM | 10.8 µM | 17.5 µM
COc1ccc(CNC=C2C(=O)NC(=O)c3ccc(-c4ccccc4)cc32)cc1O [Example 832, 4-[(3-Hydroxy-4-methoxy-benzylamino)-methylene]-6-phenyl-4H-isoquinoline-1,3-dione] | 25.9 µM | 0.01 µM | 34.7 µM | 14.9 µM | 8.5 µM | 9.9 µM | 11.8 µM

The next lines start with results.

IC50 (cyclin E/CDK2 enzyme) | IC50 (cyclin D1/cdk 4 enzyme) | IC50 (cyclin B/CDK1 enzyme) | Compound | IC50 (BT474) | IC50 (LoVo) | IC50 (HCT-116) | IC50 (MCF-7)
15.1 µM | 0.01 µM | > 50 µM | COc1ccc(-c2ccc3c(c2)C(=CNCc2ccc(OC)c(O)c2)C(=O)NC3=O)cc1 [Example 833, 4-[(3-Hydroxy-4-methoxy-benzylamino)-methylene]-6-(4-methoxy-phenyl)-4H-isoquinoline-1,3-dione] | 25.1 µM | 19.2 µM | 16.9 µM | 26.5 µM
40.6 µM | 0.04 µM | 35.5 µM | COc1ccc(CNC=C2C(=O)NC(=O)c3ccc(-c4ccc5[nH]ccc5c4)cc32)cc1O [Example 835, 4-[(3-Hydroxy-4-methoxy-benzylamino)-methylene]-6-(1H-indol-5-yl)-4H-isoquinoline-1,3-dione] | 11.7 µM | 11.3 µM | 10 µM | 12.6 µM
15.4 µM | 0.01 µM | 28.3 µM | COc1ccc(CNC=C2C(=O)NC(=O)c3ccc(-c4ccc[nH]4)cc32)cc1O [Example 836, 4-[(3-Hydroxy-4-methoxy-benzylamino)-methylene]-6-(1H-pyrrol-2-yl)-4H-isoquinoline-1,3-dione] | 12.8 µM | 6.8 µM | 12.7 µM | 17.7 µM
24.2 µM | 0.02 µM | > 50 µM | COc1ccc(CNC=C2C(=O)NC(=O)c3ccc(-c4ccco4)cc32)cc1O [Example 837, 6-Furan-2-yl-4-[(3-hydroxy-4-methoxy-benzylamino)-methylene]-4H-isoquinoline-1,3-dione] | 1.5 µM | 8.5 µM | 10.6 µM | 3.6 µM
23.6 µM | 0.15 µM | 45.5 µM | O=C1NC(=O)c2ccc(-c3ccc[nH]3)cc2C1=CNc1ccc(CN2CCCC2)cc1 [Example 838, 4-[(4-Pyrrolidin-1-ylmethyl-phenylamino)-methylene]-6-(1H-pyrrol-2-yl)-4H-isoquinoline-1,3-dione] | 23.5 µM | 17.2 µM | 7.2 µM | 8.2 µM
38.8 µM | 3.3 µM | > 50 µM | N#Cc1ccc(-c2ccc3c(c2)C(=CNc2ccc(CN4CCCC4)cc2)C(=O)NC3=O)cc1 [Example 839, 4-{1,3-Dioxo-4-[(4-pyrrolidin-1-ylmethyl-phenylamino)-methylene]-1,2,3,4-tetrahydro-isoquinolin-6-yl}-benzonitrile] | 27.2 µM | > 50 µM | 14.1 µM | 21.6 µM
31 µM | 3 µM | > 50 µM | O=C1NC(=O)c2ccc(-c3ccc(CO)cc3)cc2C1=CNc1ccc(CN2CCCC2)cc1 [Example 840, 6-(4-Hydroxymethyl-phenyl)-4-[(4-pyrrolidin-1-ylmethyl-phenylamino)-methylene]-4H-isoquinoline-1,3-dione] | > 50 µM | > 50 µM | 19 µM | 40 µM
> 50 µM | 0.18 µM | > 50 µM | COCCn1ccc(-c2ccc3c(c2)C(=CNc2ccc(N4CCN(C)CC4)cc2)C(=O)NC3=O)c1 [Example 843, 6-[1-(2-Methoxy-ethyl)-1H-pyrrol-3-yl]-4-{[4-(4-methyl-piperazin-1-yl)-phenylamino]-methylene}-4H-isoquinoline-1,3-dione] | > 50 µM | > 50 µM | 54.3 µM | 47.1 µM
> 50 µM | 5 µM | > 50 µM | O=C1NCc2cc(Br)ccc2C1=CNc1ccc(CN2CCCC2)cc1 [Example 847, 7-Bromo-4-[(4-pyrrolidin-1-ylmethyl-phenylamino)-methylene]-1,4-dihydro-2H-isoquinolin-3-one] | 8.1 µM | 4.9 µM | 4.3 µM | 6 µM
